In assay [1] the test system is WEHI-164. The experiment in a line: Antitumor activity against WEHI 164 cell. It is filed as functional, cell-based. To be noted: Mus musculus.
The subject of assay [2] is HeLa. The experiment in a line: Antitumor activity against HeLa cell line at 10 uM by MTT assay. The assay is classed as functional. To be noted: Homo sapiens.
Assay [3] has as its system HeLa. In words: Antitumor activity against HeLa cell line at 100 nM by MTT assay. It is filed as functional. To be noted: Homo sapiens. In general terms: Tetrazolium dyes change colour on reduction, which living cells bring about.
In assay [4] the test system is HeLa. In words: Antitumor activity against HeLa cell line by MTT assay. To be noted: Homo sapiens. It is filed as functional, cell-based.
For assay [5], the system named is HeLa. In words: Antitumor activity against HeLa cell line at 1 uM by MTT assay. The assay is classed as functional. To be noted: Homo sapiens.
In assay [6] the test system is HeLa. In words: Antitumor activity against HeLa cell line at 10 nM by MTT assay. To be noted: Homo sapiens. It is filed as functional.

Where only a bound is given, the exact number is not on record here.

As usually defined, the IC50 is the concentration that inhibits the measured activity by half. In general, inhibition refers to the percentage by which the read-out fell short of the control. The low end stands for little suppression, the high end for strong suppression.

`CC(=O)N[C@H]1[C@H](O[C@H]2CC[C@]3(C)[C@H]4CC=C5[C@@H]6CC(C)(C)CC[C@]6(C(=O)O)CC[C@@]5(C)[C@]4(C)CC[C@H]3C2(C)C)O[C@H](CO)[C@@H](O)[C@@H]1O[C@@H]1O[C@H](CO)[C@H](O)[C@H](O)[C@H]1O` [LOTOIDOSIDE E]: the IC50 was 0.03 µM in assay [1] and greater than 10 µM in assay [4]. The compound also came in with an inhibition at 10 µM in assay [2] of 42%. This compound also displayed an inhibition at 0.1 µM in assay [3] of 1.71%. In addition, the inhibition at 1 µM in assay [5] amounted to 10%. For the same compound, the inhibition at 0.01 µM in assay [6] amounted to 0.79%.

Take `CC(=O)N[C@H]1[C@H](O[C@H]2CC[C@]3(C)[C@H]4CC=C5[C@@H]6CC(C)(C)CC[C@]6(C(=O)O)CC[C@@]5(C)[C@]4(C)CC[C@H]3C2(C)C)O[C@H](CO)[C@H](O[C@@H]2O[C@H](CO)[C@@H](O)[C@H](O)[C@H]2O)[C@@H]1O[C@@H]1O[C@H](CO)[C@H](O)[C@H](O)[C@H]1O` [LOTOIDOSIDE D]: the IC50 came out at 0.36 µM in assay [1] and 2.74 µM in assay [4]. This compound yielded an inhibition at 10 µM in assay [2] of 56.4%. This compound also showed an inhibition at 0.1 µM in assay [3] of 32.8%. Also, at 1 µM the inhibition in assay [5] was 35.3%. In assay [6], at 0.01 µM the inhibition was 34.4%.

The values above are taken from ChEMBL document CHEMBL1146039, “Synthesis and antitumor activity of two natural N-acetylglucosamine-bearing triterpenoid saponins: lotoidoside D and E” (Bioorg Med Chem Lett, 2006).
